Results published in patent US20250114323A1, “METHODS OF REDUCING THE RISK OF CARDIOVASCULAR EVENTS IN PATIENTS WITH LEFT VENTRICULAR HYPERTROPHY” (LEXICON PHARMACEUTICALS, INC., priority 2023, published 2025).
Like-named read-outs stand apart in the source and are kept apart here.

Legend:
[1] = test system: patients with reported LVH and no reported hypertension; type: in vivo
[2] = test system: patients with type 2 diabetes mellitus, chronic kidney disease, and risks for cardiovascular disease; type: in vivo
Method: A multicenter, double-blind clinical trial (SCORED) was conducted in which patients with type 2 diabetes mellitus (glycated hemoglobin level, ≥7%), chronic kidney disease (estimated glomerular filtration rate, 25 to 60 ml per minute per 1.73 m^2 of body-surface area), and risks for cardiovascular disease were randomly assigned in a 1:1 ratio to receive sotagliflozin or placebo. The primary end point was changed during the trial to the composite of the total number of deaths from cardiovascular causes, hospitalizations for heart failure, and urgent visits for heart failure.
Randomization was stratified according to criteria for heart failure (ejection fraction of ≤40% documented within the past year or hospitalization for heart failure during the previous 2 years) and geographic region (North America, Latin America, western Europe, eastern Europe, or rest of the world).
Persons 18 years of age or older with type 2 diabetes mellitus with a glycated hemoglobin level of 7% or higher, chronic kidney disease (eGFR, 25 to 60 ml per minute per 1.73 m^2 of body-surface area), and additional cardiovascular risk factors were enrolled. The risk factors consisted of at least one major cardiovascular risk factor in those 18 years of age or older or at least two minor cardiovascular risk factors in those 55 years of age or older. One exclusion criterion was any plan to start an SGLT2 inhibitor during the trial. Written informed consent was obtained from all the patients.
The original coprimary end points, assessed in time-to-event analyses, were the first occurrence of a major adverse cardiovascular event (MACE, defined as death from cardiovascular causes, non-fatal myocardial infarction, or nonfatal stroke) and the first occurrence of death from cardiovascular causes or hospitalization for heart failure (HHF). The primary end point was the total number of deaths from cardiovascular causes, hospitalizations for heart failure, and urgent visits for heart failure (UVHF).
The secondary end points were the total number of hospitalizations for heart failure and urgent visits for heart failure; deaths from cardiovascular causes; the total number of deaths from cardiovascular causes, hospitalizations for heart failure, nonfatal myocardial infarctions, and nonfatal strokes; the total number of deaths from cardiovascular causes, hospitalizations for heart failure, urgent visits for heart failure, and events of heart failure during hospitalization; the first occurrence of the composite of a sustained decrease of at least 50% in the eGFR from baseline for at least 30 days, long-term dialysis, renal trans-plantation, or a sustained eGFR of less than 15 ml per minute per 1.73 m^2 for at least 30 days; deaths from any cause; and the total number of deaths from cardiovascular causes, nonfatal myocardial infarctions, and nonfatal strokes. The use of total events allowed for a single patient to have more than one event contributing to the analysis. Subgroup analyses were prespecified.
All efficacy analyses followed the intention-to-treat principle. To allow for analyses of total events, competing-risk marginal models for recurrent events that were stratified according to heart-failure criteria and geographic region, with deaths not included in a given end point treated as competing terminal events, were applied to generate hazard ratios with Wald 95% confidence intervals and P values. Proportionality was confirmed by interaction terms between trial-group assignment and the logarithm of time. Event rates were summarized by the number of events per 100 patient-years of follow-up, and accrual of events over time was summarized by cumulative incidence functions.
Total events of myocardial infarction and total events of stroke were evaluated post hoc. Testing for differences between the two groups in adverse events was performed post hoc; P values were obtained from Pearson chi-square tests. […]

[3] = reported LVH and no reported hypertension, N = 217
[4] = reported LVH and no reported hypertension, sotagliflozin vs placebo
[5] = SCORED overall, sotagliflozin vs placebo
[6] = SCORED overall, sotagliflozin vs placebo, listed as sotagliflozin

## CCOc1ccc(Cc2cc([C@@H]3O[C@H](SC)[C@@H](O)[C@H](O)[C@H]3O)ccc2Cl)cc1 [Sotagliflozin, (2S,3R,4R,5S,6R)-2-(4-chloro-3-(4-ethoxybenzyl)phenyl)-6-(methylthio) tetrahydro-2H-pyran-3,4,5-triol]
[1]; FIG. 1, in words
  effect on the SCORED study's primary endpoint in the presence or absence of reported LVH or hypertension at baseline: consistent
[1]; human, in vivo
  Acute Kidney Injury, count: 6
  Acute Kidney Injury, figure in brackets: 2.8
  Any Malignancies of Special Interest, count: 4
  Any Malignancies of Special Interest, figure in brackets: 1.8
  Bone Fractures, count: 7
  Bone Fractures, figure in brackets: 3.2
  Diabetic Ketoacidosis, count: 1
  Diabetic Ketoacidosis, figure in brackets: 0.5
  Diarrhea, count: 19
  Diarrhea, figure in brackets: 8.8
  Genital Mycotic Infections, count: 2
  Genital Mycotic Infections, figure in brackets: 0.9
  Pancreatitis, count: 1
  Pancreatitis, figure in brackets: 0.5
  Severe Hypoglycemia, count: 2
  Severe Hypoglycemia, figure in brackets: 0.9
  Urinary Tract Infections, count: 20
  Urinary Tract Infections, figure in brackets: 9.2
  Venous Thrombotic Events, count: 3
  Venous Thrombotic Events, figure in brackets: 1.4
  Volume Depletion, count: 10
  Volume Depletion, figure in brackets: 4.6
[1]; in words
  hazard ratio in patients with LVH without hypertension compared with the general population of patients at risk of cardiovascular events: markedly lower
  risk of CV events in patients with reported LVH and no reported hypertension: significantly reduced
[1]; [3]
  3-point MACE + HHF, event rate: 5.5 Events per 100 patient-years
  3-point MACE, event rate: 3.1 Events per 100 patient-years
[1]; [4]
  3-point MACE + HHF: Hazard Ratio (95% CI): 0.46 (0.21, 0.99)
  3-point MACE: Hazard Ratio (95% CI): 0.52 (0.21, 1.28)
[2]; SCORED overall
  total hospitalizations: 1923
  total patient-years spanned by hospitalizations: 104 patient-years
[2]; SCORED overall, N = 5292
  Deaths from any cause, event rate: 3.5 Events/100 patient-years
  Deaths from any cause, number of events: 246 number of events
  Deaths from cardiovascular causes, event rate: 2.2 Events/100 patient-years
  Deaths from cardiovascular causes, number of events: 155 number of events
  First occurrence of a sustained decrease of ≥50% in the eGFR from baseline for ≥30 days, long-term dialysis, renal transplantation, or sustained eGFR of <15 ml/min/1.73 m^2 for ≥30 days, event rate: 0.5 Events/100 patient-years
  First occurrence of the composite renal end point (sustained ≥50% eGFR decrease, long-term dialysis, renal transplantation, or sustained eGFR <15), number of events: 37 number of events
  Primary end point: total no. of deaths from cardiovascular causes, hospitalizations for HF, and urgent visits for HF, event rate: 5.6 Events/100 patient-years
  Primary end point: total no. of deaths from cardiovascular causes, hospitalizations for HF, and urgent visits for HF, number of events: 400 number of events
  Total no. of deaths from cardiovascular causes, hospitalizations for HF, nonfatal myocardial infarctions, and nonfatal strokes, event rate: 7.6 Events/100 patient-years
  Total no. of deaths from cardiovascular causes, hospitalizations for HF, nonfatal myocardial infarctions, and nonfatal strokes, number of events: 541 number of events
  Total no. of deaths from cardiovascular causes, hospitalizations for HF, urgent visits for HF, and events of HF during hospitalization, event rate: 6.4 Events/100 patient-years
  Total no. of deaths from cardiovascular causes, hospitalizations for HF, urgent visits for HF, and events of HF during hospitalization, number of events: 453 number of events
  Total no. of deaths from cardiovascular causes, nonfatal myocardial infarctions, and nonfatal strokes, event rate: 4.8 Events/100 patient-years
  Total no. of deaths from cardiovascular causes, nonfatal myocardial infarctions, and nonfatal strokes, number of events: 343 number of events
  Total no. of hospitalizations for HF and urgent visits for HF, event rate: 3.5 Events/100 patient-years
  Total no. of hospitalizations for HF and urgent visits for HF, number of events: 245 number of events
[2]; SCORED overall, in words
  composite renal end point, compared with placebo: did not differ significantly
  risk of the composite of deaths from cardiovascular causes, hospitalizations for heart failure, and urgent visits for heart failure, compared with placebo: lower risk
[2]; [5]
  Deaths from any cause: Hazard Ratio (95% CI): 0.99 (0.83-1.18)
  Deaths from cardiovascular causes: Hazard Ratio (95% CI): 0.90 (0.73-1.12)
  First occurrence of the composite renal end point: Hazard Ratio (95% CI): 0.71 (0.46-1.08)
  Original coprimary end point, first occurrence of death from cardiovascular causes or hospitalization for heart failure: hazard ratio: 0.77
  Original coprimary end point, first occurrence of death from cardiovascular causes, nonfatal myocardial infarction, or nonfatal stroke: hazard ratio: 0.84
  Primary end point: Hazard Ratio (95% CI): 0.74 (0.63-0.88)
  Total no. of deaths from cardiovascular causes, hospitalizations for HF, nonfatal myocardial infarctions, and nonfatal strokes: Hazard Ratio (95% CI): 0.72 (0.63-0.83)
  Total no. of deaths from cardiovascular causes, hospitalizations for HF, urgent visits for HF, and events of HF during hospitalization: Hazard Ratio (95% CI): 0.76 (0.64-0.89)
  Total no. of deaths from cardiovascular causes, nonfatal myocardial infarctions, and nonfatal strokes: Hazard Ratio (95% CI): 0.77 (0.65-0.91)
  Total no. of hospitalizations for HF and urgent visits for HF: Hazard Ratio (95% CI): 0.67 (0.55-0.82)
[2]; [6]
  Deaths from cardiovascular causes: Hazard Ratio (95% CI): 0.90
  Primary end point: Hazard Ratio (95% CI): 0.74
  Total no. of hospitalizations for HF and urgent visits for HF: Hazard Ratio (95% CI): 0.67
[2]; human, in vivo
  acute kidney injury, percentage of patients: 2.2%
  diabetic ketoacidosis, percentage of patients: 0.6%
  diarrhea, percentage of patients: 8.5%
  genital mycotic infections, percentage of patients: 2.4%
  percentage of patients in whom hypertension developed: 2.6%
  percentage of patients in whom hypotension developed: 2.6%
  percentage of patients with a serious adverse event: 23.4%
  volume depletion, percentage of patients: 5.3%
[2]; in vivo
  Diarrhea, genital mycotic infections, volume depletion, and diabetic ketoacidosis, frequency compared with placebo: more common
  bone fractures, urinary tract infections, severe hypoglycemia, acute kidney injury, or amputations, compared with placebo: no significant between-group differences
  percentage of patients with adverse events that occurred or worsened during the treatment period or with events leading to withdrawal of the trial regimen, compared with placebo: no significant differences
